Measured values from patent publication US9475841B2, “Melanoma antigen peptide and uses thereof” (INSERM (INSTITUT NATIONAL DE LA SANTE ET DE LA RECHERCHE …, priority 2012, dated 2016).

Tests used:
[1] = test system: MELOE-1 specific CD4+ T cells; experiment: MELOE-1 CD4+ T cell responses in PBMC from healthy donors: restimulation of microcultures with overlapping peptides, CD4/TNF-α staining; format: cell-based, human; conditions: for Microcultures containing MELOE-1 specific CD4+ T cells (TNF-α production): positive/tested microcultures
Procedure: PBMC from healthy donors were stimulated with 10 μM of MELOE-1. After 14 days, the presence of CD4 T cells specific for the different regions of MELOE-1 was assessed by restimulating cells with MELOE-12-21, MELOE-111-30, MELOE-118-37 and MELOE-126-46 peptides, followed by CD4/TNF-α double staining and flow cytometry analysis. Between brackets is indicated the mean % of TNF-α producing CD4 T cells, in positive microcultures. NA: not available.
(§1) PBMC from healthy donors or melanoma patients (2·10^5 cells/well) were cultured for 14 days with 10 μM of MELOE-1 whole antigen (46 amino acids) in RPMI medium supplemented with 8% HS, 50 IU/ml of rIL-2 (Chiron, France) and L-Glutamin, in 96-well multiplates. Microcultures were then restimulated individually with each overlapping peptide (MELOE-12-21, MELOE-111-30, MELOE-118-37, MELOE-12646 or MELOE-122-46 for melanoma patients) in the presence of 10 μg/mL brefeldin A for 5 hours and the percentage of CD4^+ specific T cells was assessed by TNF-α, IFN-γ or IL-4 intracellular staining. A negative control without peptide was included in all experiments.
Our purpose was to look for the existence of class II helper epitopes all along MELOE-1 sequence (SEQ ID NO:20), in order to document the immunogenicity of the different regions of this melanoma antigen. We stimulated 2·10^7 PBMC from seven healthy donors with MELOE-1 whole antigen and tested, after a 14-day culture period the presence of CD4 T cells specific for each region of the protein. Microcultures were screened for TNFα production by CD4+ T cells, after restimulation with four MELOE-1 derived overlapping peptides (Table I), in an autopresentation assay. […] On the contrary, the central region 18-37, containing an already described DR11-restricted epitope (24-37) located just at the end of this 20-mer peptide (Rogel et al., 2011), induced specific responses in microcultures deriving from only 2/7 donors (HD9 and HD17, both expressing the DR11 element). In these two donors, we detected 6 and 7% of positive microcultures, containing between 0.6 to 3.7% of TNFα producing CD4 T cells.

[2] = test system: MELOE-1 specific CD4 T cells; experiment: MELOE-1 CD4+ T cell responses in PBMC from melanoma patients: restimulation with peptides, CD4/IFN-γ (Th1) and CD4/IL4 (Th2) staining; format: cell-based, human; conditions: for mean % of cytokine producing CD4 T cells, in positive microcultures (IFN-γ): Th1; for Th1 responses (IFN-γ positive microcultures) / Th2 responses (IL4 positive microcultures): positive/tested microcultures; for mean % of cytokine producing CD4 T cells, in positive microcultures (IL4): Th2
Procedure: PBMC from melanoma patients were stimulated with 10 μM of MELOE-1. After 14 days, the presence of CD4 T cells specific for the different regions of MELOE-1 was assessed by restimulating cells with MELOE-12-21, MELOE-111-30 and MELOE-122-46 peptides, followed by CD4/IFN-γ double staining for the detection of Th1 responses, and by CD4/IL4 double staining for Th2 responses. Between brackets is indicated the mean % of cytokine producing CD4 T cells, in positive microcultures.
as §1
In order to confirm the immunogenicity of each MELOE-1 regions in melanoma patients, we stimulated melanoma patients PBMC with the MELOE-1 whole protein, and tested the reactivity of stimulated lymphocytes towards the three most immunogenic regions: 2-21, 11-30, and 22-46. For this study, instead of challenging microcultures with the 18-37 peptide, that appeared poorly immunogenic, we extended the C-terminus region from 26-46 to 22-46, in order to also detect responses to our previously described HLA-DR11-restricted epitope (24-37). […] We tested the induction of CD4 specific responses from MELOE-1 stimulated PBMC of […] melanoma patients. We documented CD4 responses specific for the central region of MELOE-1 (11-30) for 7/9 patients, whereas responses specific for MELOE-12-21 and MELOE-122-46 were respectively detected in 4/9 and 5/9 patients (Table III). These responses were mainly Th1 responses (IFN-g production) while less frequent Th2 responses specific for the three regions of MELOE-1 were detected in 3/9 patients for MELOE-12-21, 2/9 patients for MELOE-111-30 and 5/9 patients for MELOE-122-46 (Table III). […] Concerning Th2 responses, much less frequent, the C-term region appeared to induce more frequently the growth of IL-4 producing CD4 T cells than the two other regions (FIG. 2A). […] In summary, stimulation of patient's PBMC with MELOE-1 induced Th1 responses specific for diverse epitopes located all along the protein sequence, and among the different regions, the central region (11-30) and the C-term region (22-46) appeared to be especially immunogenic in term of frequency of responses.

Q: Which “mean % of TNF-α producing CD4 T cells, in positive microcultures” value (“mean % of TNF-α producing CD4 T cells” for short) ([1]; donor HD9) does the source give for “SCVGYPDEATSREQFLPSEG (SCVGYPDEATSREQFLPSEC) [MELOE-12-21]” here?
A: (1.4% ± 0.6)

Q: And the “Microcultures containing MELOE-1 specific CD4+ T cells (TNF-α production)” value ([1]; donor HD9 (DPβ1*0902/1501, DQβ1*0301, DRβ1*1104/1201))?
A: 9/96

Q: What about the “mean % of TNF-α producing CD4 T cells” value ([1]; donor HD17) of the same sequence?
A: (3.2% ± 1.9)

Q: What about the “Microcultures containing MELOE-1 specific CD4+ T cells (TNF-α production)” value ([1]; donor HD17 (DPβ1*0401/0301, DQβ1*0301/0603, DRβ1*1101/1301)) of the same sequence?
A: 6/96

Q: What about the “mean % of TNF-α producing CD4 T cells” value ([1]; donor HD22) of the same sequence?
A: (1%)

Q: And the “Microcultures containing MELOE-1 specific CD4+ T cells (TNF-α production)” value ([1]; donor HD22 (DPβ1*0401/1101, DQβ1*0202, DRβ1*0701))?
A: 1/96

Q: What about the “mean % of TNF-α producing CD4 T cells” value ([1]; donor HD24) of the same sequence?
A: (1.3% ± 0.8)

Q: What about the “Microcultures containing MELOE-1 specific CD4+ T cells (TNF-α production)” value ([1]; donor HD24 (DPβ1*0401/0101, DQβ1*0501/0602, DRβ1*0101/1501)) of the same sequence?
A: 3/96

Q: What about the “mean % of TNF-α producing CD4 T cells” value ([1]; donor HD25) of the same sequence?
A: (0.6% ± 0.1)

Q: What about the “Microcultures containing MELOE-1 specific CD4+ T cells (TNF-α production)” value ([1]; donor HD25 (DPβ1*0401/0402, DQβ1*0201, DRβ1*0301)) of the same sequence?
A: 3/96

Q: And the “Microcultures containing MELOE-1 specific CD4+ T cells (TNF-α production)” value ([1]; donor HD27 (DQβ1*501/0201, DRβ1*0101/0301))?
A: 0/96

Q: What about the “mean % of TNF-α producing CD4 T cells” value ([1]; donor HD28) of the same sequence?
A: (2.7% ± 1.2)

Q: What about the “Microcultures containing MELOE-1 specific CD4+ T cells (TNF-α production)” value ([1]; donor HD28 (DRβ1*0301)) of the same sequence?
A: 30/48

Q: What about the “% of positive microcultures” value ([1]; healthy donor HD28) of the same sequence?
A: 62%

Q: What about the “donors in which CD4 responses against the region were detected” value ([1]; seven healthy donors) of the same sequence?
A: 6/7

Q: And the “Th1 responses, % of tested microcultures” value ([2]; 576 tested microcultures from melanoma patients, IFN-γ)?
A: 3.3%

Q: What about the “patients in which Th2 responses were detected” value ([2]; melanoma patients, IL4) of the same sequence?
A: 3/9

Q: And the “patients in which CD4 responses specific for the region were detected” value ([2]; melanoma patients, Table III, Th1 (IFN-γ))?
A: 4/9

Q: And the “mean % of cytokine producing CD4 T cells, in positive microcultures (IFN-γ)” value (“mean % … (IFN-γ)” below) ([2]; patient Pt ≠ 1)?
A: (0.7%)

Q: And the “Th1 responses (IFN-γ positive microcultures)” value ([2]; patient Pt ≠ 1)?
A: 1/48

Q: And the “Th2 responses (IL4 positive microcultures)” value ([2]; patient Pt ≠ 1)?
A: 0/48

Q: And the “mean % … (IFN-γ)” value ([2]; patient Pt ≠ 2)?
A: (0.8% ± 0.2)

Q: And the “Th1 responses (IFN-γ positive microcultures)” value ([2]; patient Pt ≠ 2)?
A: 4/96

Q: What about the “Th2 responses (IL4 positive microcultures)” value ([2]; patient Pt ≠ 2) of the same sequence?
A: 0/96

Q: What about the “Th1 responses (IFN-γ positive microcultures)” value ([2]; patient Pt ≠ 3 (DPβ1*0201/2001, DQβ1*0303/0501, DRβ1*0101/0701)) of the same sequence?
A: 10/96

Q: And the “mean % … (IFN-γ)” value ([2]; patient Pt ≠ 3)?
A: (1.7% ± 2.9)

Q: And the “Th2 responses (IL4 positive microcultures)” value ([2]; patient Pt ≠ 3)?
A: 0/96

Q: And the “mean % of cytokine producing CD4 T cells, in positive microcultures (IL4)” value (from here on “mean % of cytokine producing CD4 T cells … (IL4)”) ([2]; patient Pt ≠ 4)?
A: (0.7%)

Q: What about the “Th1 responses (IFN-γ positive microcultures)” value ([2]; patient Pt ≠ 4) of the same sequence?
A: 0/48

Q: And the “Th2 responses (IL4 positive microcultures)” value ([2]; patient Pt ≠ 4)?
A: 1/48

Q: And the “mean % … (IFN-γ)” value ([2]; patient Pt ≠ 5)?
A: (0.6%)

Q: What about the “mean % of cytokine producing CD4 T cells … (IL4)” value ([2]; patient Pt ≠ 5) of the same sequence?
A: (0.7% ± 0.1)

Q: And the “Th1 responses (IFN-γ positive microcultures)” value ([2]; patient Pt ≠ 5)?
A: 1/48

Q: And the “Th2 responses (IL4 positive microcultures)” value ([2]; patient Pt ≠ 5)?
A: 2/48

Q: And the “Th1 responses (IFN-γ positive microcultures)” value ([2]; patient Pt ≠ 6)?
A: 0/48

Q: What about the “Th2 responses (IL4 positive microcultures)” value ([2]; patient Pt ≠ 6) of the same sequence?
A: 0/48

Q: What about the “Th1 responses (IFN-γ positive microcultures)” value ([2]; patient Pt ≠ 7) of the same sequence?
A: 0/48

Q: What about the “Th2 responses (IL4 positive microcultures)” value ([2]; patient Pt ≠ 7) of the same sequence?
A: 0/48

Q: And the “Th1 responses (IFN-γ positive microcultures)” value ([2]; patient Pt ≠ 8)?
A: 0/48

Q: And the “Th2 responses (IL4 positive microcultures)” value ([2]; patient Pt ≠ 8)?
A: 0/48

Q: And the “mean % of cytokine producing CD4 T cells … (IL4)” value ([2]; patient Pt ≠ 9)?
A: (0.6%)

Q: And the “Th1 responses (IFN-γ positive microcultures)” value ([2]; patient Pt ≠ 9)?
A: 0/48

Q: And the “Th2 responses (IL4 positive microcultures)” value ([2]; patient Pt ≠ 9)?
A: 1/48
